Laboratory results taken from US20190380912A1, “EXCIPIENT FREE GLUCOSAMINE TABLETS AND METHOD OF MAKING” (Purepharm Inc., priority 2018, published 2019).

Experiment: Friability and hardness of dried tablets on handling
Type: physicochemical
Conditions: Pellet Press, dry powder without water

CC(=O)N[C@H]1C(O)O[C@H](CO)[C@@H](O)[C@@H]1O (stereo partly shown) [N-Acetylglucosamine]
compressibility: did not compress at all
